From ChEMBL document CHEMBL1145011 (J Med Chem, 2003)

What was measured:
[1] = in vivo; settings: rat
[2] = in vivo; settings: rat, iv, 10 umol/kg
[3] = in vivo; settings: rat, plasma, iv, 10 umol/kg
[4] = in vivo; settings: rat, po, 10 umol/kg
[5] = in vivo; settings: rat, po, 10 umol/kg; remark: listed apart in the source
[6] = in vivo; settings: rat, po, 10 uM/kg
[7] = Tested for plasma clearance at intravenous dose of 25 umol/kg in monkey; assay type: ADME, organism-based
[8] = Percent oral bioavailability at dose of 25 umol/kg in monkey; assay type: ADME, organism-based; settings: primates, in vivo
[9] = Area under curve at oral dose of 25 umol/kg in monkey; assay type: ADME; settings: simiiformes, in vivo
[10] = Area under curve at intravenous dose of 25 umol/kg in monkey; assay type: ADME; settings: simiiformes, in vivo
[11] = Half life in monkey at intravenous dose of 25 umol/kg; assay type: ADME, organism-based; settings: simiiformes, in vivo
[12] = Tested for volume distribution at intravenous dose of 25 umol/kg in monkey; assay type: ADME, organism-based; settings: simiiformes, in vivo, read-out: Vss
[13] = Half life in monkey at oral dose of 25 umol/kg; assay type: ADME, organism-based; settings: simiiformes, in vivo
[14] = T max value at oral dose of 25 umol/kg in monkey; assay type: ADME, organism-based; settings: simiiformes, in vivo
[15] = Cmax value at oral dose of 25 umol/kg in monkey; assay type: ADME, organism-based; set-up: dose 25 umol/kg, route oral; settings: simiiformes, in vivo
[16] = in vivo; settings: rat, plasma, iv, 10 umol/kg; remark: listed apart in the source
[17] = in vivo; settings: rat, iv, 10 umol/kg; remark: listed apart in the source
[18] = in vitro; settings: human, Caco-2

In the case of `Cc1onc(NS(=O)(=O)c2ccccc2-c2ccc(-c3ncco3)cc2CN2CCC(C)(C)C2=O)c1C`, the half-life [1] was 282 min, the Vd [2] was 2.3 L/kg and the clearance [3] was 9.3 mL/min/kg. It also gave a Tmax [4] of 36 min, a Cmax [5] of 7.7 µM and a bioavailability [6] of 78%.

Work on `Cc1onc(NS(=O)(=O)c2ccccc2-c2ccc(-c3ncco3)cc2N(C)C(=O)CC(C)(C)C)c1C` yielded a clearance [7] of 2.7 mL/min/kg, a half-life [1] of 204 min and a bioavailability [8] of 26%. For the same compound, the Tmax [4] was 24 min, the Cmax [5] was 28 µM and the bioavailability [6] was 100%. It also gave an AUC [9] of 41.5 µM·h, an AUC [10] of 161 µM·h and a half-life [11] of 840 min. The Vd [12] was 0.25 L/kg, the half-life [13] was 1020 min and the Tmax [14] was 1.2 h. It also gave a Cmax [15] of 16.1 µM, a clearance [16] of 5.4 mL/min/kg and a Vd [17] of 1.1 L/kg.

With `Cc1noc(NS(=O)(=O)c2ccccc2-c2ccc(-c3ncco3)cc2COCC(C)C)c1C` the Papp [18] was under 3 ×10⁻⁶ cm/s.

For `Cc1noc(NS(=O)(=O)c2ccccc2-c2ccc(-c3ncco3)cc2/C=C\c2ccccc2)c1C`, the Papp [18] was 8.9 ×10⁻⁶ cm/s.

Compound `Cc1noc(NS(=O)(=O)c2ccccc2-c2ccc(-c3ncco3)cc2Cc2ncco2)c1C` has a Papp [18] of 14.8 ×10⁻⁶ cm/s.
